Earlier results on five molecules are cited in patent US20050143344A1, “Methods and compositions using immunomodulatory compounds for the treatment and management of central nervous system disorders or diseases” (priority 2003, published 2005).

The conditions of data set [1]: for conversion in acetone and other anhydrous systems: acetone / anhydrous solvent systems.
For another data set, the system named is nigrostriatal neurons. The conditions noted are these: lentiviral vector delivery.

With `Nc1cccc2c1CN(C1CCC(=O)NC1=O)C2=O` (stereo not drawn) [Form D, 3-(4-amino-1-oxo-1,3 dihydro-isoindol-2-yl)-piperidene-2,6-dione], the “conversion at higher relative humidities” value in data set [1] is reported as “will typically convert to Form B”.
On to `Nc1cccc2c1CN(C1CCC(=O)NC1=O)C2=O` (stereo not drawn) [Form C, 3-(4-amino-1-oxo-1,3 dihydro-isoindol-2-yl)-piperidene-2,6-dione], for which the “conversion at higher relative humidities” value in data set [1] was “can convert to Form B”.
With `Nc1cccc2c1CN(C1CCC(=O)NC1=O)C2=O` (stereo not drawn) [Form B, 3-(4-amino-1-oxo-1,3 dihydro-isoindol-2-yl)-piperidene-2,6-dione], the conversion upon heating entry in data set [1] (175° C. for about five minutes) was “can convert to Form F”. The “conversion in acetone and other anhydrous systems” value in data set [1] was “converts to other forms”. Besides, the “stability / conversion in aqueous solvent systems” value in data set [1] (aqueous solvent systems) is “converts to Form E”.
For the molecule `Nc1cccc2c1CN(C1CCC(=O)NC1=O)C2=O` (stereo not drawn) [Form E, 3-(4-amino-1-oxo-1,3 dihydro-isoindol-2-yl)-piperidene-2,6-dione], in data set [1] (THF solvent system), the “conversion in THF solvent system” value is on record as “to Form G”. In addition, the “conversion upon heating (desolvation)” value in data set [1] (about 125° C. for about five minutes) is “can convert to Form B”. Also, the “conversion in acetone and other anhydrous systems” value in data set [1] is given as “can convert to Form C”.

B1: GDNF: glial cell line derived neurotrophic factor, delivered by lentiviral vectors to striatum and SN of rhesus monkeys (protein, UniProt P39905 78-211, looked up)
Glial cell line-derived …: SPDKQMAVLPRRERNRQAAAANPENSRGKGRRGQRGKNRGCVLTAIHLNVTDLGLGYETKEELIFRYCSGSCDAAETTYDKILKNLSRNRRLVSDKVGQACCRPIAFDDDLSFLDDNLVYHILRKHSAKRCGCI
modifications: lentiviral vector delivery
notes: glial cell line derived neurotrophic factor, delivered by lentiviral vectors to striatum and SN of rhesus monkeys
As for B1, in the data set with nigrostriatal neurons (MPTP treated monkeys), the motor deficits result was “reversed”. The dopaminergic function entry in the data set on nigrostriatal neurons (aged monkeys) was “augmented”. In the data set with nigrostriatal neurons (monkeys treated with MPTP), the functional deficits result is given as “reversed” and the nigrostriatal degeneration result is on record as “prevented”.
